Key:
Type in all cases: in vivo
[1] = tested on: duck salad (Heteranthera limosa); assay: Test B flooded paddy test; conditions: Flood, scale 0 to 100
In short: (§1)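 Visual injury scoring (0 = no effect, 100 = complete control) versus controls made 13 to 15 days after treatment in the greenhouse. Test species were grown in flooded paddy to the 2-leaf stage: rice, barnyardgrass, umbrella sedge, duck salad.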

[2] = tested on: barnyardgrass (Echinochloa crus-galli); assay: Test B flooded paddy test; conditions: Flood, scale 0 to 100
In short: as §1

rice (Oryza sativa) = assay: Test B flooded paddy test; conditions: Flood, scale 0 to 100
In short: as §1

[3] = tested on: umbrella sedge (Cyperus difformis); assay: Test B flooded paddy test; conditions: Flood, scale 0 to 100
In short: as §1

[4] = tested on: crabgrass (Digitaria sanguinalis); assay: Test A pre/postemergence
In short: (§2)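 Compared with untreated controls, treated plants were visually rated for injury on a 0 (none) to 100 (complete control) scale about ten days after spraying. Pre- and postemergence applications used one solvent/surfactant formulation; postemergence plants measured 2–10 cm.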

[5] = tested on: velvetleaf (Abutilon theophrasti); assay: Test A pre/postemergence
In short: as §2

[6] = tested on: redroot pigweed (Amaranthus retroflexus); assay: Test A pre/postemergence
In short: as §2

[7] = tested on: giant foxtail (Setaria faberi); assay: Test A pre/postemergence
In short: as §2

[8] = tested on: barnyardgrass (Echinochloa crus-galli); assay: Test A pre/postemergence
In short: as §2

[9] = tested on: morningglory (Ipomoea spp.); assay: Test A pre/postemergence
In short: as §2

[10] = tested on: blackgrass (Alopecurus myosuroides); assay: Test B postemergence; conditions: scale 0 to 100 (0 no effect, 100 complete control)
In short: (§3)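 Test chemicals in a non-phytotoxic solvent mixture with surfactant were applied preemergence to planted seeds and postemergence to plants 2 to 18 cm tall (1- to 4-leaf stage). After 13 to 15 days in a greenhouse, injury was visually rated against untreated controls on a 0 to 100 scale.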

wild oat (Avena fatua) = assay: Test B postemergence; conditions: scale 0 to 100 (0 no effect, 100 complete control)
In short: as §3

[11] = tested on: Surinam grass (Brachiaria decumbens); assay: Test B pre/postemergence; conditions: for Surinam Grass plant response rating: Postemergence; for Plant response rating, Surinam Grass: Preemergence
Description: (§4) Seeds selected from barnyardgrass (Echinochloa crus-galli), Surinam grass (Brachiaria decumbens), cocklebur (Xanthium strumarium), corn (Zea mays), crabgrass (Digitaria sanguinalis), giant foxtail (Setaria faberii), lambsquarters (Chenopodium album), morningglory (Ipomoea coccinea), pigweed (Amaranthus retroflexus), velvetleaf (Abutilon theophrasti), and wheat (Triticum aestivum) were planted and treated preemergence with test chemicals formulated in a non-phytotoxic solvent mixture which included a surfactant.
(§5) At the same time, plants selected from these crop and weed species and also blackgrass (Alopecurus myosuroides) and wild oat (Avena fatua) were treated with postemergence applications of test chemicals formulated in the same manner. Plants ranged in height from 2 to 18 cm (1- to 4-leaf stage) for postemergence treatments. Plant species in the flooded paddy test consisted of rice (Oryza sativa), umbrella sedge (Cyperus difformis), duck salad (Heteranthera limosa) and barnyardgrass (Echinochloa crus-galli) grown to the 2-leaf stage for testing. Treated plants and controls were maintained in a greenhouse for 13 to 15 days, after which time all species were compared to controls and visually evaluated. Plant response ratings, summarized in Table B, are based on a scale of 0 to 100 where 0 is no effect and 100 is complete control. A dash (-) response means no test result.

[12] = tested on: crabgrass (Digitaria sanguinalis); assay: Test B pre/postemergence; conditions: for Crabgrass plant response rating: Postemergence; for Plant response rating, Crabgrass: Preemergence
Description: as §4, §5

corn (Zea mays) = assay: Test B pre/postemergence; conditions: for Corn plant response rating: Postemergence; for Plant response rating, Corn: Preemergence
Description: as §4, §5

[13] = tested on: cocklebur (Xanthium strumarium); assay: Test B pre/postemergence; conditions: for Cocklebur plant response rating: Postemergence; for Plant response rating, Cocklebur: Preemergence
Description: as §4, §5

[14] = tested on: velvetleaf (Abutilon theophrasti); assay: Test B pre/postemergence; conditions: for Velvetleaf plant response rating: Postemergence; for Plant response rating, Velvetleaf: Preemergence
Description: as §4, §5

[15] = tested on: giant foxtail (Setaria faberii); assay: Test B pre/postemergence; conditions: for Foxtail, Giant plant response rating: Postemergence; for Plant response rating, Foxtail, Giant: Preemergence
Description: as §4, §5

[16] = tested on: barnyardgrass (Echinochloa crus-galli); assay: Test B pre/postemergence; conditions: for Barnyardgrass plant response rating: Postemergence; for Plant response rating, Barnyardgrass: Preemergence
Description: as §4, §5

[17] = tested on: morningglory (Ipomoea coccinea); assay: Test B pre/postemergence; conditions: for Morningglory plant response rating: Postemergence; for Plant response rating, Morningglory: Preemergence
Description: as §4, §5

[18] = tested on: wheat (Triticum aestivum); assay: Test B pre/postemergence; conditions: for Wheat plant response rating: Postemergence; for Plant response rating, Wheat: Preemergence
Description: as §4, §5

[19] = tested on: lambsquarters (Chenopodium album); assay: Test B pre/postemergence; conditions: for Lambsquarters plant response rating: Postemergence; for Plant response rating, Lambsquarters: Preemergence
Description: as §4, §5

[20] = tested on: pigweed (Amaranthus retroflexus); assay: Test B pre/postemergence; conditions: for Pigweed plant response rating: Postemergence; for Plant response rating, Pigweed: Preemergence
Description: as §4, §5

[21] = Postemergence, 125 g ai/ha, 0 to 100 scale (0 no effect, 100 complete control)
[22] = Postemergence, 500 g ai/ha, 0 to 100 scale (0 no effect, 100 complete control)
[23] = Preemergence, 125 g ai/ha, 0 to 100 scale where 0 is no effect and 100 is complete control, approximately ten days
[24] = Preemergence, 500 g ai/ha, 0 to 100 scale where 0 is no effect and 100 is complete control, approximately ten days
[25] = 62 g ai/ha, scale 0 to 100 (0 no effect, 100 complete control)
[26] = 125 g ai/ha, scale 0 to 100 (0 no effect, 100 complete control)
[27] = 62 g ai/ha, scale 0 to 100, 0 no effect, 100 complete control

## COC(=O)c1nc(-c2ccc(F)cc2)nc(N)c1Br [Compound 92]
[1]; 125 g ai/ha
  Plant response rating, Ducksalad: 80
[1]; 500 g ai/ha
  Plant response rating, Ducksalad: 90
[2]; 125 g ai/ha
  Plant response rating, Barnyardgrass: 0
[2]; 500 g ai/ha
  Plant response rating, Barnyardgrass: 0
Rice (Oryza sativa); 125 g ai/ha
  Plant response rating, Rice: 0
Rice (Oryza sativa); 500 g ai/ha
  Plant response rating, Rice: 0
[3]; 125 g ai/ha
  Plant response rating, Sedge, Umbrella: 80
[3]; 500 g ai/ha
  Plant response rating, Sedge, Umbrella: 90
[4]; [21]
  Plant response rating, Crabgrass: 0
[4]; [22]
  Plant response rating, Crabgrass: 5
[4]; [23]
  Plant response rating, Crabgrass: 0
[4]; [24]
  Plant response rating, Crabgrass: 0
[5]; [21]
  Plant response rating, Velvetleaf: 45
[5]; [22]
  Plant response rating, Velvetleaf: 70
[5]; [23]
  Plant response rating, Velvetleaf: 10
[5]; [24]
  Plant response rating, Velvetleaf: 45
[6]; [21]
  Plant response rating, Pigweed: 35
[6]; [22]
  Plant response rating, Pigweed: 70
[6]; [23]
  Plant response rating, Pigweed: 15
[6]; [24]
  Plant response rating, Pigweed: 45
[7]; [21]
  Plant response rating, Foxtail, Giant: 0
[7]; [22]
  Plant response rating, Foxtail, Giant: 0
[7]; [23]
  Plant response rating, Foxtail, Giant: 0
[7]; [24]
  Plant response rating, Foxtail, Giant: 0
[8]; [21]
  Plant response rating, Barnyardgrass: 0
[8]; [22]
  Plant response rating, Barnyardgrass: 0
[8]; [23]
  Plant response rating, Barnyardgrass: 0
[8]; [24]
  Plant response rating, Barnyardgrass: 0
[9]; [21]
  Plant response rating, Morningglory: 45
[9]; [22]
  Plant response rating, Morningglory: 75
[9]; [23]
  Plant response rating, Morningglory: 0
[9]; [24]
  Plant response rating, Morningglory: 0
[10]; 62 g ai/ha
  Blackgrass plant response rating: 20
[10]; 125 g ai/ha
  Blackgrass plant response rating: 20
Wild oat (Avena fatua); 62 g ai/ha
  Oat, Wild plant response rating: 0
Wild oat (Avena fatua); 125 g ai/ha
  Oat, Wild plant response rating: 0
[11]; [25]
  Surinam Grass plant response rating: 0
[11]; [26]
  Surinam Grass plant response rating: 10
  Plant response rating, Surinam Grass: 0
[11]; [27]
  Plant response rating, Surinam Grass: 0
[12]; [25]
  Crabgrass plant response rating: 0
[12]; [26]
  Crabgrass plant response rating: 20
  Plant response rating, Crabgrass: 10
[12]; [27]
  Plant response rating, Crabgrass: 0
Corn (Zea mays); [25]
  Corn plant response rating: 0
Corn (Zea mays); [26]
  Corn plant response rating: 0
  Plant response rating, Corn: 0
Corn (Zea mays); [27]
  Plant response rating, Corn: 0
[13]; [25]
  Cocklebur plant response rating: 60
[13]; [26]
  Cocklebur plant response rating: 80
  Plant response rating, Cocklebur: 50
[13]; [27]
  Plant response rating, Cocklebur: 40
[14]; [25]
  Velvetleaf plant response rating: 50
[14]; [26]
  Velvetleaf plant response rating: 60
  Plant response rating, Velvetleaf: 70
[14]; [27]
  Plant response rating, Velvetleaf: 50
[15]; [25]
  Foxtail, Giant plant response rating: 20
[15]; [26]
  Foxtail, Giant plant response rating: 30
  Plant response rating, Foxtail, Giant: 10
[15]; [27]
  Plant response rating, Foxtail, Giant: 0
[16]; [25]
  Barnyardgrass plant response rating: 10
[16]; [26]
  Barnyardgrass plant response rating: 10
  Plant response rating, Barnyardgrass: 30
[16]; [27]
  Plant response rating, Barnyardgrass: 10
[17]; [25]
  Morningglory plant response rating: 50
[17]; [26]
  Morningglory plant response rating: 60
  Plant response rating, Morningglory: 0
[17]; [27]
  Plant response rating, Morningglory: 0
[18]; [25]
  Wheat plant response rating: 0
[18]; [26]
  Wheat plant response rating: 0
  Plant response rating, Wheat: 30
[18]; [27]
  Plant response rating, Wheat: 0
[19]; [25]
  Lambsquarters plant response rating: 90
[19]; [26]
  Lambsquarters plant response rating: 90
  Plant response rating, Lambsquarters: 80
[19]; [27]
  Plant response rating, Lambsquarters: 50
[20]; [25]
  Pigweed plant response rating: 70
[20]; [26]
  Pigweed plant response rating: 80
  Plant response rating, Pigweed: 80
[20]; [27]
  Plant response rating, Pigweed: 40

Reference: patent US8802597B2, “Herbicidal pyrimidines” (E I du Pont de Nemours and Company, priority 2003, dated 2014)
